Experimental data published in the Deep4Chem optical property database.
Values joined by “and” are separate entries in the source; they are usually repeats but may differ in a detail not shown here. Equal values may be shown once.

Test: solvent given as SMILES

SMILES: [NH3+]C(Cc1ccc(O)cc1)C(=O)[O-] (centres undefined)
- emission maximum (in O): 304 nm

SMILES: c1cc2ccc3[s+]c4ccc5cccc6c7cccc8c(c1)c2c3c(c87)c4c56
- emission maximum (in ClCCl): 643 nm

SMILES: CN(C)c1ccc(/C=C/c2cc[n+](CCC[n+]3ccc(/C=C/c4ccc(N(C)C)cc4)cc3)cc2)cc1
- emission maximum (in CC1COC(=O)O1): 604 nm
- emission maximum (in CC#N): 609 nm
- emission maximum (in CC(C)=O): 608 nm
- emission maximum (in CC(C)O): 594 nm
- emission maximum (in CCO): 601 nm
- emission maximum (in CN(C)C=O): 607 nm
- emission maximum (in CO): 604 nm
- emission maximum (in CS(C)=O): 610 nm
- emission maximum (in ClC(Cl)Cl): 566 nm
- emission maximum (in O): 597 nm
- emission maximum (in c1ccncc1): 598 nm

SMILES: C(=C\c1ccncn1)/c1ccc(-c2ccco2)cc1
- emission maximum (in ClCCl): 401 nm

SMILES: COC(=O)/C=C/c1sc(-c2ccc(N(C)C)s2)c(-c2cn(C)c3ccccc23)c1O
- emission maximum (in CC#N): 663 nm

SMILES: CC(C)(C)c1cc(-c2c3cccc4c5cccc6c(-c7cc(C(C)(C)C)cc(C(C)(C)C)c7)c7cccc8c9cccc2c9c(c34)c(c65)c78)cc(C(C)(C)C)c1
- emission maximum (in Cc1ccccc1): 701 nm

SMILES: O=C(/C=C/c1cn(-c2ccccc2)nc1-c1ccccc1)c1c(O)c2ccccc2oc1=O
- emission maximum (in C1CCOC1): 489 nm
- emission maximum (in C1COCCO1): 482 nm
- emission maximum (in CCO): 507 nm
- emission maximum (in CCOC(C)=O): 487 nm
- emission maximum (in CN(C)C=O): 505 nm
- emission maximum (in CO): 504 nm
- emission maximum (in CS(C)=O): 510 nm
- emission maximum (in Cc1ccccc1): 480 nm
- emission maximum (in ClC(Cl)Cl): 493 nm
- emission maximum (in ClCCl): 502 nm

SMILES: CN(C)c1ccc(/C=C/C=C/c2nc3ccccc3o2)cc1
- emission maximum (in C1COCCO1): 508 nm
- emission maximum (in CC#N): 535 nm
- emission maximum (in CC(C)=O): 531 nm
- emission maximum (in CCCCCC): 474 nm
- emission maximum (in CCCCO): 525 nm
- emission maximum (in CCCO): 526 nm
- emission maximum (in CCO): 531 nm
- emission maximum (in CN(C)C=O): 538 nm
- emission maximum (in CO): 539 nm
- emission maximum (in Cc1ccccc1): 496 nm
- emission maximum (in ClC(Cl)(Cl)Cl): 491 nm
- emission maximum (in ClC(Cl)Cl): 517 nm
- emission maximum (in ClCCl): 525 nm
- emission maximum (in OCC(O)CO): 566 nm
- emission maximum (in OCCO): 562 nm
- emission maximum (in c1ccccc1): 503 nm

SMILES: Cc1ccc(C2=C3C=CC(C#Cc4ccccc4)=[N+]3[B-](F)(F)n3c(Cl)ccc32)cc1
- emission maximum (in C1CCCCC1): 575 nm
- emission maximum (in C1CCOC1): 573 nm
- emission maximum (in C1COCCO1): 575 nm
- emission maximum (in CCOC(C)=O): 571 nm
- emission maximum (in CO): 569 nm
- emission maximum (in Cc1ccccc1): 577 nm
- emission maximum (in ClC(Cl)Cl): 577 nm

SMILES: Nc1cccc2cc3ccccc3cc12
- emission maximum (in C1CCCCC1): 487.09 nm

SMILES: CN(C)c1ccc(C#Cc2ccc3ccc4ccc(C#Cc5ccc(N(C)C)cc5)c5ccc2c3c45)cc1
- emission maximum (in C1COCCO1): 491.8 nm
- emission maximum (in CC(C)=O): 570.9 nm
- emission maximum (in CCCCCC): 459 nm
- emission maximum (in CCCCCCO): 531.8 nm
- emission maximum (in CCO): 543 nm
- emission maximum (in CCOC(C)=O): 529.9 nm
- emission maximum (in CO): 555.1 nm
- emission maximum (in Cc1ccccc1): 482 nm
- emission maximum (in ClCCl): 532.7 nm

SMILES: c1ccc2nc(-n3c4ccccc4c4ccccc43)c(-n3c4ccccc4c4ccccc43)nc2c1
- emission maximum (in C1CCOC1): 516.79 nm
- emission maximum (in CCCCCC): 467.18 nm
- emission maximum (in Cc1ccccc1): 503 nm

SMILES: CCN(CC)c1ccc(C=Cc2nc3nc4ccccc4nc3s2)cc1
- emission maximum (in CO): 630 nm

SMILES: CC1=CC(/C=C/c2ccc(N(C)C)cc2)=[N+]2C1=C(c1ccccc1)c1c(C)cc(/C=C/c3ccc(N(C)C)cc3)n1[B-]2(F)F
- emission maximum (in ClC(Cl)Cl): 753 nm

SMILES: COC(=O)c1nc(-c2ccccc2)oc1C
- emission maximum (in C1CCCCC1): 297 nm
- emission maximum (in CC#N): 322 nm
- emission maximum (in CCO): 324 nm
- emission maximum (in CCOC(C)=O): 318 nm
- emission maximum (in O): 328 nm

SMILES: CCOC(=O)CSc1nc(C)c(CC)c(C#N)c1C#N
- emission maximum (in c1ccccc1): 407 nm

SMILES: Cc1cc(C)c(-c2cc3c(s2)-c2sc(-c4c(C)cc(C)cc4C)cc2P(c2ccccc2)(c2ccccc2)=[O+][B-]3(c2c(C)cc(C)cc2C)c2c(C)cc(C)cc2C)c(C)c1
- emission maximum (in C1CCOC1): 472 nm

SMILES: Cc1ccc(-c2nc(-c3cccc(O)c3)[nH]c2-c2ccc(C)cc2)cc1
- emission maximum (in CO): 399 nm

SMILES: Cc1cc(=O)oc2ccc3ccc(O)cc3c12
- emission maximum (in CC#N): 429 nm
- emission maximum (in CCO): 450 nm

SMILES: O=c1[nH]cc(F)c(=O)[nH]1
- emission maximum (in CC#N): 322 nm

SMILES: O=Cc1ccc(-c2ccc(O)c(-c3nc4ccccc4s3)c2)s1
- emission maximum (in CCO): 558 nm
- emission maximum (in ClCCl): 553 nm
- emission maximum (in O): 574 nm

SMILES: c1ccc(N(c2ccccc2)c2ccc(-c3cnc(-c4ccncc4)s3)cc2)cc1
- emission maximum (in CO): 566 nm

SMILES: CCC1(CC)c2ccccc2-c2c1c1c(c3c2C(CC)(CC)c2cc(B(c4c(C)cc(C)cc4C)c4c(C)cc(C)cc4C)ccc2-3)C(CC)(CC)c2cc(B(c3c(C)cc(C)cc3C)c3c(C)cc(C)cc3C)ccc2-1
- emission maximum (in C1CCOC1): 387 nm
- emission maximum (in CC#N): 398 nm
- emission maximum (in CC(C)=O): 394 nm
- emission maximum (in CCCCCC): 378 nm
- emission maximum (in ClC(Cl)Cl): 387 nm

SMILES: O=S(=O)(c1cccc(N2c3ccccc3Sc3ccccc32)c1)c1cccc(N2c3ccccc3Sc3ccccc32)c1
- emission maximum (in C1CCOC1): 596 nm
- emission maximum (in CCCCC(CC)n1c2ccc(-n3c4ccccc4c4ccccc43)cc2c2cc(-n3c4ccccc4c4ccccc43)ccc21): 554.57 nm
- emission maximum (in Cc1ccccc1): 561 nm
- emission maximum (in ClC(Cl)Cl): 579 nm
- emission maximum (in c1cc(-n2c3ccccc3c3ccccc32)cc(-n2c3ccccc3c3ccccc32)c1): 550.83 nm

SMILES: N#Cc1c(-n2c3ccccc3c3ccccc32)c(-n2c3ccccc3c3ccccc32)c(-n2c3ccccc3c3ccccc32)c(-n2c3ccccc3c3ccccc32)c1-n1c2ccccc2c2ccccc21
- emission maximum (in CCCCCC): 451.82 nm
- emission maximum (in CCO): 515.31 nm
- emission maximum (in Cc1ccccc1): 464 nm and 470 nm
- emission maximum (in ClCCl): 497.22 nm
- emission maximum (in c1cc(-c2cccc(-n3c4ccccc4c4ccccc43)c2)cc(-n2c3ccccc3c3ccccc32)c1): 486 nm

SMILES: COc1ccc(-n2nc(C#N)c(N3CCCCC3)n2)cc1
- emission maximum (in CC#N): 415 nm

SMILES: O=c1oc2ccccc2cc1-c1cn2ccccc2n1
- emission maximum (in ClC(Cl)Cl): 456 nm

SMILES: N#Cc1ccc(/C=C2\OC(=O)c3cc(N)ccc32)cc1
- emission maximum (in CC#N): 485.44 nm
- emission maximum (in CC(C)=O): 482.16 nm
- emission maximum (in CC(C)CO): 502.26 nm
- emission maximum (in CC(C)O): 496.03 nm
- emission maximum (in CCCO): 498.26 nm
- emission maximum (in CCO): 502.77 nm
- emission maximum (in CCOC(C)=O): 467.73 nm
- emission maximum (in CCOCC): 444.84 nm
- emission maximum (in CO): 503.52 nm

SMILES: CCOC(=O)C(Cc1ccc(O[Si]2(Oc3ccc(CC(NC(C)=O)C(=O)OCC)cc3)n3c4c5ccccc5c3/N=C3N=C(/N=c5/c6ccccc6/c(n52)=N/C2=NC(=N\4)/c4ccccc42)c2ccccc2\3)cc1)NC(C)=O (centres undefined)
- emission maximum (in CN(C)C=O): 686 nm

SMILES: C1=CN2C[n+]3cccc(OCc4ccccc4)c3N=C2C(OCc2ccccc2)=C1
- emission maximum (in CO): 487 nm

SMILES: Cc1ccc(-c2c3nc(c(-c4ccc(C)cc4)c4ccc([nH]4)c(-c4ccc(OC(=O)C(C)c5cccc(C(=O)c6ccccc6)c5)cc4)c4nc(c(-c5ccc(C)cc5)c5ccc2[nH]5)C=C4)C=C3)cc1 (centres undefined)
- emission maximum (in ClCCl): 652 nm

SMILES: Cc1cc(C)c(B(c2ccc(C#Cc3cc4ccc5cc(C#Cc6ccc(B(c7c(C)cc(C)cc7C)c7c(C)cc(C)cc7C)cc6)cc6ccc(c3)c4c56)cc2)c2c(C)cc(C)cc2C)c(C)c1
- emission maximum (in Cc1ccccc1): 426 nm

SMILES: c1ccc(-c2cc(-c3ccc(N(c4ccccc4)c4ccccc4)cc3)cc(-c3ccccc3)n2)cc1
- emission maximum (in CC#N): 489 nm
- emission maximum (in CCCCCC): 393 nm
- emission maximum (in CCO): 505 nm
- emission maximum (in CO): 524 nm
- emission maximum (in ClCCl): 476 nm

SMILES: Oc1ccc2ccccc2c1/C=N/c1cc2nc3ccccc3nc2cc1/N=C/c1c(O)ccc2ccccc12
- emission maximum (in CC#N): 525 nm

SMILES: F[B-]1(F)n2c(ccc2-c2ccccc2)C(C(F)(F)F)=C2C=CC(c3ccccc3)=[N+]21
- emission maximum (in CCCCCC): 622 nm

SMILES: Cc1ccc(-c2cnc3nn4ccccc4c3c2)cc1
- emission maximum (in C1CCOC1): 418 nm

SMILES: CC1=N/C(=C\c2ccccc2N)C(=O)N1C
- emission maximum (in C1CCCCC1): 451 nm
- emission maximum (in C1CCOC1): 513 nm
- emission maximum (in CC#N): 453 nm
- emission maximum (in CO): 454 nm
- emission maximum (in CS(C)=O): 530 nm
- emission maximum (in ClCCl): 452 nm
- emission maximum (in O): 452 nm

SMILES: O=P(c1ccccc1)(c1ccccc1)n1c2ccccc2c2cc(-n3c4ccccc4c4cc(-n5c6ccccc6c6cc(-n7c8ccccc8c8ccccc87)ccc65)ccc43)ccc21
- emission maximum (in C1CCOC1): 378 nm
- emission maximum (in CC(C)=O): 382 nm
- emission maximum (in Cc1ccccc1): 376 nm
- emission maximum (in ClCCl): 383 nm

SMILES: COC(=O)/C(C#N)=c1\s/c(=c2/s/c(=C(/C#N)C(=O)OC)c3cc(-c4ccc(C)cc4)sc23)c2sc(-c3ccc(C)cc3)cc12
- emission maximum (in Cc1ccccc1): 652 nm

SMILES: Clc1ccc(/C=C/c2nc3ccccc3o2)cc1
- emission maximum (in C1CCCCC1): 380 nm
- emission maximum (in CO): 385 nm

SMILES: Cn1c2ccc(S(=O)(=O)O)cc2c(=O)c2cc(S(=O)(=O)O)ccc21
- emission maximum (in CS(C)=O): 424 nm
- emission maximum (in O): 433 nm

SMILES: CCOC(=O)c1cc(C(=O)OCC)c2c(C)ccc(OC(=O)OC(C)(C)C)c2n1
- emission maximum (in CCO): 505 nm

SMILES: c1ccc(-c2c3c(c(-c4ccccc4)c4c2-c2ccccc2C4)-c2ccccc2C3)cc1
- emission maximum (in C1CCCCC1): 375 nm

SMILES: COc1ccc(C2=C(c3ccc(OC)cc3)C(C)(C)c3ccccc32)cc1
- emission maximum (in C1CCCCC1): 391 nm

SMILES: C[C@]12C(=O)NC(=O)N([C@H]3CC(O)[C@@H](CO)O3)[C@H]1[C@H]1Oc3cc4oc(=O)ccc4cc3[C@H]12 (some centres undefined)
- emission maximum (in CC(C)O): 428 nm
- emission maximum (in CCO): 432 nm
- emission maximum (in CCOCC): 410 nm
- emission maximum (in CO): 446 nm
- emission maximum (in O): 465 nm

SMILES: COc1ccc2cc(-c3ccc(S(C)(=O)=O)cc3)oc(=O)c2c1
- emission maximum (in CCO): 410 nm
- emission maximum (in CCOC(C)=O): 404 nm
- emission maximum (in CN(C)C=O): 410 nm
- emission maximum (in CO): 410 nm
- emission maximum (in ClC(Cl)Cl): 408 nm

SMILES: F[B-]1(F)OC(c2ccc3ccccc3c2)=CC(c2ccc3ccccc3c2)=[O+]1
- emission maximum (in CC#N): 510 nm
- emission maximum (in ClC(Cl)(Cl)Cl): 428 nm

SMILES: CC1(C)C(/C=C/C2=C(Oc3ccc(CCN=C=S)cc3)C(=C/C=C3/N(CCCS(=O)(=O)[O-])c4ccccc4C3(C)C)/CCC2)=[N+](CCCS(=O)(=O)[O-])c2ccccc21
- emission maximum (in CO): 794 nm
